Data as given in BindingDB's records for doi:10.7270/Q2M32T6M (Vanderbilt Screening Center for GPCRs, Ion Channels and …, 2009).

What follows are compounds tested against T1, Solute carrier family 12 member 5 (Homo sapiens, UniProt Q9H2X9) (assay: concentration-response of KCC2 transport modulators – cell-based, HEK293 KCC2, FluoZin-2 fluorescence, dose response (AID 1736)). Settings: not given.
T1 sequence (Q9H2X9 whole entry): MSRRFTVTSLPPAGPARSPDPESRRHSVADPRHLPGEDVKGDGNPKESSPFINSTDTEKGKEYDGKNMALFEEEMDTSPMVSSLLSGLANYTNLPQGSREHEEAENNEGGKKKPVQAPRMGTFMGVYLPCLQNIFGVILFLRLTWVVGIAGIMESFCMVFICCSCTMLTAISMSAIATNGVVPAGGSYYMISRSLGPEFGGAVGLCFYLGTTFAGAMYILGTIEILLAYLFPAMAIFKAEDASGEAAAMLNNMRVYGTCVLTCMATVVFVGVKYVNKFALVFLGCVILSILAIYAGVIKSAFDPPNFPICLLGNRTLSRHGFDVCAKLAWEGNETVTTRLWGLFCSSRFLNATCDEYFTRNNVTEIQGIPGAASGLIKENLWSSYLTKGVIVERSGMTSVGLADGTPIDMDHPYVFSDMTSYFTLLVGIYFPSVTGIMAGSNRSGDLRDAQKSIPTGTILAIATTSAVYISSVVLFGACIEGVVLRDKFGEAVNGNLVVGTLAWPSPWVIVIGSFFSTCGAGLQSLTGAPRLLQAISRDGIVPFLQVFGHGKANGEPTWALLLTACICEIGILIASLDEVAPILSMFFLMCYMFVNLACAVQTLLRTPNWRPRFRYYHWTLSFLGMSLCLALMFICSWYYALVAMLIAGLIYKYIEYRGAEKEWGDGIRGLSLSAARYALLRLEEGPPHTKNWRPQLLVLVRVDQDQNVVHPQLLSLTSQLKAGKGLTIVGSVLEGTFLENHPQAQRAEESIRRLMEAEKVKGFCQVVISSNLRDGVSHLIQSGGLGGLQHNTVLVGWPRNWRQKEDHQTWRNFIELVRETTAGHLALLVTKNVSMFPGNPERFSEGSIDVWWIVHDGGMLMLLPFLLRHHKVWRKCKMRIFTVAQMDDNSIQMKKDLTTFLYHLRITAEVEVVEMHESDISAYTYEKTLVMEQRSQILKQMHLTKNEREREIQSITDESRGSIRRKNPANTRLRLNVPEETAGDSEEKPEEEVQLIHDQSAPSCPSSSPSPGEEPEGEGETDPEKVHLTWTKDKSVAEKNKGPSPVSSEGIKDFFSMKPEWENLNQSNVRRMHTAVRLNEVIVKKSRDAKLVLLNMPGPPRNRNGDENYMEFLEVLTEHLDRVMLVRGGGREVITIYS

Compound	EC50
S=C(NCCc1ccccc1)NN=Cc1cccc(Cl)c1Cl [1-[(2,3-dichlorobenzylidene)amino]-3-phenethyl-thiourea]	22.7 µM
Fc1cccc(F)c1C=NNC(=S)Nc1cccnc1 [1-[(2,6-difluorobenzylidene)amino]-3-(3-pyridyl)thiourea]	9.24 µM
NC(=S)NN=C1C(=O)N(Cc2ccc(F)cc2)c2ccccc21 [1-[(Z)-[1-[(4-fluorophenyl)methyl]-2-oxidanylidene-indol-3-ylidene]amino]thiourea]	7.98 µM
Cc1ccc(-c2noc(CN3CCN(Cc4ccccc4)CC3)n2)cc1 [1-benzyl-4-{[3-(4-methylphenyl)-1,2,4-oxadiazol-5-yl]methyl}piperazine]	7.58 µM
O=C(CSc1ccc(-c2ccccc2)nn1)c1ccccc1 [1-phenyl-2-(6-phenylpyridazin-3-yl)sulfanyl-ethanone]	1.06 µM
CC1CCN(C(=O)c2ccc(SCc3ccccc3F)c([N+](=O)[O-])c2)CC1 [1-{4-[(2-fluorobenzyl)thio]-3-nitrobenzoyl}-4-methylpiperidine]	42.6 µM
O=C(c1ccc(S(=O)(=O)c2cccc(Cl)c2)c([N+](=O)[O-])c1)N1CCN(c2ccccn2)CC1 [1-{4-[(3-chlorophenyl)sulfonyl]-3-nitrobenzoyl}-4-pyridin-2-ylpiperazine]	2.55 µM
O=C(NC(=S)Nc1nc(-c2cccc([N+](=O)[O-])c2)cs1)c1cc(Cl)ccc1Cl [2,5-bis(chloranyl)-N-[[4-(3-nitrophenyl)-1,3-thiazol-2-yl]carbamothioyl]benzamide]	10.8 µM
Cc1ccc(C)c(C(=O)NC(C)CCc2ccccc2)c1 (configuration not stated) [2,5-dimethyl-N-(1-methyl-3-phenyl-propyl)benzamide]	7.74 µM
CCn1nnnc1SCC(=O)Nc1nc(-c2cccs2)cs1 [2-(1-Ethyl-1H-tetrazol-5-ylsulfanyl)-N-(4-thiophen-2-yl-thiazol-2-yl)-acetamide]	3.74 µM
Cn1c(CSc2nc3ccccc3s2)nc2ccccc21 [2-(1-Methyl-1H-benzoimidazol-2-ylmethylsulfanyl)-benzothiazole]	439 µM
C=CCNc1oc(Cc2cccc3ccccc23)nc1C#N [2-(1-naphthalenylmethyl)-5-(prop-2-enylamino)-4-oxazolecarbonitrile]	4.49 µM
O=C(CN1C(=O)NC2(CCCC2)C1=O)Nc1nc(-c2ccc(F)cc2)cs1 [2-(2,4-diketo-1,3-diazaspiro[4.4]nonan-3-yl)-N-[4-(4-fluorophenyl)thiazol-2-yl]acetamide]	0.156 µM
N#Cc1nc(-c2ccco2)oc1N1CCN(Cc2ccccc2)CC1 [2-(2-furanyl)-5-[4-(phenylmethyl)-1-piperazinyl]-4-oxazolecarbonitrile]	12 µM
O=C(COC(=O)c1cc([N+](=O)[O-])ccc1NCCO)c1ccccc1 [2-(2-hydroxyethylamino)-5-nitro-benzoic acid phenacyl ester]	31.1 µM
Cc1cc(C)c(C#N)c(N2CCN(Cc3ccccc3)CC2)n1 [2-(4-benzyl-1-piperazinyl)-4,6-dimethylnicotinonitrile]	8.18 µM
O=C(Cn1nc(-c2ccccc2)ccc1=O)NCc1ccc2c(c1)OCO2 [2-(6-keto-3-phenyl-pyridazin-1-yl)-N-piperonyl-acetamide]	1.94 µM

Compound	EC50
O=C(Cn1cnc2c(nnn2-c2ccccc2)c1=O)NCCc1ccccc1 [2-(7-keto-3-phenyl-triazolo[4,5-d]pyrimidin-6-yl)-N-phenethyl-acetamide]	2.52 µM
O=C(COC(=O)c1cc([N+](=O)[O-])ccc1NCc1ccccc1)NC1CCCCC1 [2-(benzylamino)-5-nitro-benzoic acid [2-(cyclohexylamino)-2-keto-ethyl] ester]	0.481 µM
O=C(O)c1cc([N+](=O)[O-])ccc1NCc1ccccc1 [2-(benzylamino)-5-nitro-benzoic acid]	1490 µM
O=[N+]([O-])c1ccc(CSc2nnc(SCc3ccccc3)s2)cc1 [2-(benzylthio)-5-[(4-nitrobenzyl)thio]-1,3,4-thiadiazole]	2.06 µM
CCc1ccc(OCCNC(=O)c2ccccc2SCc2ccccc2)cc1 [2-(benzylthio)-N-[2-(4-ethylphenoxy)ethyl]benzamide]	35.2 µM
COc1ccc(S(=O)(=O)N2CCC(C(=O)N3CCc4ccccc4C3)CC2)cc1C [2-({1-[(4-methoxy-3-methylphenyl)sulfonyl]-4-piperidinyl}carbonyl)-1,2,3,4-tetrahydroisoquinoline]	4.98 µM
Cn1nccc1C(=O)OCC(=O)Nc1nc(-c2ccccc2)cs1 [2-Methyl-2H-pyrazole-3-carboxylic acid (4-phenyl-thiazol-2-ylcarbamoyl)-methyl ester]	6.08 µM
O=C(CSc1nnnn1-c1ccc(Cl)cc1)N1CCc2ccccc2C1 [2-[1-(4-chlorophenyl)tetrazol-5-yl]sulfanyl-1-(3,4-dihydro-1H-isoquinolin-2-yl)ethanone]	1.42 µM
O=C1Nc2ccc([N+](=O)[O-])cc2OC1CCN1CCN(Cc2ccccc2)CC1 (configuration not stated) [2-[2-(4-benzylpiperazin-1-yl)ethyl]-7-nitro-4H-1,4-benzoxazin-3-one]	4.2 µM
O=C(CSc1ccccc1C(=O)NCc1ccccc1)NC1CCCCCCC1 [2-[2-(cyclooctylamino)-2-oxidanylidene-ethyl]sulfanyl-N-(phenylmethyl)benzamide]	1.65 µM
NC(=O)COc1ccccc1/C=C1/SC(=O)N(CC(=O)N2CCc3ccccc3C2)C1=O [2-[2-({3-[2-(3,4-dihydro-2(1H)-isoquinolinyl)-2-oxoethyl]-2,4-dioxo-1,3-thiazolidin-5-ylidene}methyl)phenoxy]acetamide]	10800 µM
CCc1ccc(Nc2nnc(SCC(=O)Nc3sccc3C(N)=O)s2)cc1 [2-[2-[[5-[(4-ethylphenyl)amino]-1,3,4-thiadiazol-2-yl]sulfanyl]ethanoylamino]thiophene-3-carboxamide]	3.54 µM
O=C(Cn1cnc2c(nnn2Cc2ccc(F)cc2)c1=O)NCc1ccc2c(c1)OCO2 [2-[3-(4-fluorobenzyl)-7-keto-triazolo[4,5-d]pyrimidin-6-yl]-N-piperonyl-acetamide]	1.48 µM
O=[N+]([O-])c1cc(-n2c(O)c3c(c2O)CCCC3)ccc1NC1CCN(Cc2ccccc2)CC1 [2-[3-nitro-4-[[1-(phenylmethyl)-4-piperidinyl]amino]phenyl]-3a,4,5,6,7,7a-hexahydroisoindole-1,3-dione]	28.1 µM
Cc1cccc(OCc2nnc(SCC(=O)c3cccs3)n2C)c1C [2-[5-(2,3-Dimethyl-phenoxymethyl)-4-methyl-4H-[1,2,4]triazol-3-ylsulfanyl]-1-thiophen-2-yl-ethanone]	9.24 µM
O=C(CSc1nnc(-c2ccc(F)cc2)o1)N1CCN(C(=O)c2ccco2)CC1 [2-[5-(4-Fluoro-phenyl)-[1,3,4]oxadiazol-2-ylsulfanyl]-1-[4-(furan-2-carbonyl)-piperazin-1-yl]-ethanone]	5.32 µM

Same assay, conditions: inactive by the depositor's call

Compound	EC50
O=C(COc1ccc2ccccc2c1Br)Nn1cnnc1 [2-(1-bromanylnaphthalen-2-yl)oxy-N-(1,2,4-triazol-4-yl)ethanamide]	459 µM
O=C(CSC1=NCCS1)Nc1nc(-c2ccccc2)cs1 [2-(4,5-dihydro-1,3-thiazol-2-ylsulfanyl)-N-(4-phenyl-1,3-thiazol-2-yl)acetamide]	1890 µM
COc1ccc(-c2nnc(-c3ccc(OCC(C)C)cc3)o2)cc1 [2-(4-Isobutoxy-phenyl)-5-(4-methoxy-phenyl)-[1,3,4]oxadiazole]	0.00127 µM
Cc1nc(N2CCN(Cc3ccccc3)CC2)nc2c1C(=O)CCC2 [2-(4-benzylpiperazin-1-yl)-4-methyl-7,8-dihydro-6H-quinazolin-5-one]	8.64 µM
Cc1ccc(N(CC(=O)NCCSc2ccccn2)S(=O)(=O)c2ccc(F)cc2)cc1 [2-(N-(4-fluorophenyl)sulfonyl-4-methyl-anilino)-N-[2-(2-pyridylthio)ethyl]acetamide]	2.87 µM
COn1c(SC2CCCCC2)nc2ccccc2c1=O [2-(cyclohexylthio)-3-methoxy-4-quinazolinone]	82.6 µM
CCc1ccc(-c2nc(C[S+]([O-])CC(=O)NCc3cccnc3)c(C)o2)cc1 (configuration not stated) [2-({[2-(4-ethylphenyl)-5-methyl-1,3-oxazol-4-yl]methyl}sulfinyl)-N-(pyridin-3-ylmethyl)acetamide]	38.3 µM
O=C(Cn1nc(-c2ccccc2F)ccc1=O)NCc1ccc2c(c1)OCO2 [2-[3-(2-fluorophenyl)-6-keto-pyridazin-1-yl]-N-piperonyl-acetamide]	8.27 µM
CC(C)CC(c1nnnn1Cc1cccs1)N1CCN(c2nc3ccccc3s2)CC1 (configuration not stated) [2-[4-[3-methyl-1-[1-(2-thenyl)tetrazol-5-yl]butyl]piperazino]-1,3-benzothiazole]	46.4 µM
